Results as given in patent US7501412B2, “Isoquinoline compounds and medicinal use thereof” (Mitsubishi Tanabe Pharma Corporation, priority 2002, dated 2009).
pIC50: −log10 of the molar value. Where a name gives a salt, the structure may show the parent alone.

What was measured:
recombinant human PARP = target: T1, recombinant human PARP (Homo sapiens, UniProt P09874); test: PARP enzyme activity inhibitory action; assay type: biochemical; conditions: recombinant human PARP (Trevigen), 3H-NAD, activated DNA, 25° C. for 15 min
T1 construct: purchased Trevigen 4667-02X
Experimental: After incubation at 25° C. for 15 min., the reaction was stopped by adding 20% trichloroacetic acid, and the resulting acid insoluble fraction was adsorbed to a GF/B filter. Then, the filter was washed several times with 5% trichloroacetic acid, and the radioactivity on the filter was measured with a liquid scintillation counter.

T1 sequence (P09874 whole entry): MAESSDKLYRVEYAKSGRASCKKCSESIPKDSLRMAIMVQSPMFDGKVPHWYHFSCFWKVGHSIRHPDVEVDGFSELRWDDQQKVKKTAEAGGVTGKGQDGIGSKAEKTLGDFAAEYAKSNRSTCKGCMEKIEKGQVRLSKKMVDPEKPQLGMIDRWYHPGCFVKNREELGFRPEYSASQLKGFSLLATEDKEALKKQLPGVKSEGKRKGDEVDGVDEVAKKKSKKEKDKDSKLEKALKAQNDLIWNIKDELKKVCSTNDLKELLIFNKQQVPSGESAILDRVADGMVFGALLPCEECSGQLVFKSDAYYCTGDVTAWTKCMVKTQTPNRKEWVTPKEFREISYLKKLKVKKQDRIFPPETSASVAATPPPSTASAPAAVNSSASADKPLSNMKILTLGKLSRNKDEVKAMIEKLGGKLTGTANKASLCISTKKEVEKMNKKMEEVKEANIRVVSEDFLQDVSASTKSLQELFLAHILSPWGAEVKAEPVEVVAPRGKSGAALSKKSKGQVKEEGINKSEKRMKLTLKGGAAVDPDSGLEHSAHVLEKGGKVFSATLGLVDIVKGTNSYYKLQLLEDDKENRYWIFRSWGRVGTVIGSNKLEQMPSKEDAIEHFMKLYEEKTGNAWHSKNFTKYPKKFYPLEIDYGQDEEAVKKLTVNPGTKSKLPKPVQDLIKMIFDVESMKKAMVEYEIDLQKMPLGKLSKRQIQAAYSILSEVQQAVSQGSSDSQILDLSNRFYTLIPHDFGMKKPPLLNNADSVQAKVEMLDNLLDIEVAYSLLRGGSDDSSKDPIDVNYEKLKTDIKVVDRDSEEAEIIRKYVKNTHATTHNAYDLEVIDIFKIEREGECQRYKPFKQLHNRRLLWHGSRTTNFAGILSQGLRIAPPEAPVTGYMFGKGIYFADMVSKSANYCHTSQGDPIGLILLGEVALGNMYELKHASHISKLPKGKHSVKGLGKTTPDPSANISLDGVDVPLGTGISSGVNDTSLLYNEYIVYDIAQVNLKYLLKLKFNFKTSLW

Row | pIC50 (recombinant human PARP) | melting point [°C] | SMILES
1 | 7.52 |  | CCN1CCC(c2nn(C)c3[nH]c(=O)c4cc(F)ccc4c23)CC1 [Ex. 223, 1-(1-Ethylpiperidin-4-yl)-7-fluoro-3-methyl-pyrazolo[3,4-c]isoquinolin-5(4H)-one]
2 | 7.47 |  | O=c1[nH]cc(C2CCN(CCO)CC2)c2ccccc12 [Ex. 32, 4-(1-(2-hydroxyethyl)piperidin-4-yl)-2H-isoquinolin-1-one]
3 | 7.35 |  | Cc1[nH]c(=O)c2cc(F)ccc2c1CN1CCCC1 [Ex. 28, 7-Fluoro-3-methyl-4-((pyrrolidin-1-yl)methyl)-2H-isoquinolin-1-one]
4 | 7.66 |  | O=c1[nH]cc(C2CCNCC2)c2ccc(F)cc12 [Ex. 45, 7-Fluoro-4-(piperidin-4-yl)-2H-isoquinolin-1-one hydrochloride]
5 | 7.36 |  | CN1CCC(c2nn(C)c3[nH]c(=O)c4cc(F)ccc4c23)CC1 [Ex. 222, 7-Fluoro-1-(1-methylpiperidin-4-yl)-3-methyl-pyrazolo[3,4-c]isoquinolin-5(4H)-one]
6 | 6.84 |  | CN1CCN(Cc2nn(C)c3[nH]c(=O)c4ccccc4c23)CC1 [Ex. 21, 3-Methyl-1-((4-methylpiperazin-1-yl)methyl)-3H-pyrazolo[3,4-c]isoquinolin-5(4H)-one]
7 | 7.37 |  | CN(C)CC(=O)c1c(N)[nH]c(=O)c2ccccc12 [Ex. 1, 3-amino-4-(2-(dimethylamino)acetyl)-2H-isoquinolin-1-one hydrochloride monohydrate]
8 | 7.37 |  | CN1CCC(c2nn(C)c3[nH]c(=O)c4ccccc4c23)CC1 [Ex. 209, 1-(1-methylpiperidin-4-yl)-3-methyl-pyrazolo[3,4-c]isoquinolin-5(4H)-one]
9 | 7.38 |  | CCCN1CCC(c2nn(C)c3[nH]c(=O)c4cc(F)ccc4c23)CC1 [Ex. 225, 7-Fluoro-1-(1-propylpiperidin-4-yl)-3-methyl-pyrazolo[3,4-c]isoquinolin-5(4H)-one]
10 | 7.33 |  | CCCN1CCC(c2nn(C)c3[nH]c(=O)c4ccccc4c23)CC1 [Ex. 226, 1-(1-Propylpiperidin-4-yl)-3-methyl-pyrazolo[3,4-c]isoquinolin-5(4H)-one]
11 | 7.52 |  | Cn1nc(C2CCNCC2)c2c3ccc(F)cc3c(=O)[nH]c21 [Ex. 221, 7-Fluoro-1-(piperidin-4-yl)-3-methyl-pyrazolo[3,4-c]isoquinolin-5(4H)-one hydrochloride]
12 | 7.62 |  | O=c1[nH]cc(C2CCN(CCO)CC2)c2ccc(F)cc12 [Ex. 48, 7-Fluoro-4-(1-(2-hydroxyethyl)piperidin-4-yl)-2H-isoquinolin-1-one hydrochloride]
13 | 7.43 |  | CN1CCC(c2c[nH]c(=O)c3cc(Cl)ccc23)CC1 [Ex. 46, 7-Chloro-4-(1-methylpiperidin-4-yl)-2H-isoquinolin-1-one]
14 | 7.51 |  | O=c1[nH]cc(C2CCNCC2)c2ccccc12 [Ex. 31, 4-(piperidin-4-yl)-2H-isoquinolin-1-one hydrochloride]
15 |  | 231.8 to 234.6 | CN1CCC(c2c[nH]c(=O)c3cc(C(F)(F)F)ccc23)CC1 (as salt: hydrochloride) [Example 198, 4-(1-Methylpiperidin-4-yl)-7-trifluoromethyl-2H-isoquinolin-1-one]
16 | 7.40 |  | CN(C)CC(=O)c1c(N)[nH]c(=O)c2cc(F)ccc12 [Ex. 14, 3-Amino-4-(2-(dimethylamino)acetyl)-7-fluoro-2H-isoquinolin-1-one hydrochloride]
17 |  | 227.6 to 229.3 | CN1CCC(c2c[nH]c(=O)c3c(F)cccc23)CC1
18 |  | 224.9 to 226.2 | COc1ccc2c(C3CCN(C)CC3)c[nH]c(=O)c2c1 [Example 201, 7-Methoxy-4-(1-methylpiperidin-4-yl)-2H-isoquinolin-1-one]
19 | 7.64 |  | CN1CCC(c2c[nH]c(=O)c3cc(F)ccc23)CC1 [Ex. 47, 7-Fluoro-4-(1-methylpiperidin-4-yl)-2H-isoquinolin-1-one hydrochloride]
20 | 7.49 |  | Cn1nc(CN2CCCC2)c2c3ccccc3c(=O)[nH]c21 [Ex. 7, 3-methyl-1-(pyrrolidin-1-yl)methyl-3H-pyrazolo[3,4-c]isoquinolin-5(4H)-one]
21 | 7.41 |  | Cc1[nH]c(=O)c2cc(Cl)ccc2c1CN1CCCC1 [Ex. 27, 7-chloro-3-methyl-4-((pyrrolidin-1-yl)methyl)-2H-isoquinolin-1-one]
22 | 7.40 |  | CN1CCC(c2c[nH]c(=O)c3ccccc23)CC1 [Ex. 33, 4-(1-methylpiperidin-4-yl)-2H-isoquinolin-1-one]
23 | 7.33 |  | CCN1CCC(c2c[nH]c(=O)c3cc(F)ccc23)CC1 [Ex. 212, 7-Fluoro-4-(1-ethylpiperidin-4-yl)-2H-isoquinolin-1-one]
24 |  | 212.8 to 214.8 | Cc1ccc2c(C3CCN(C)CC3)c[nH]c(=O)c2c1
25 | 7.66 |  | O=c1[nH]cc(C2CCNCC2)c2ccc(Cl)cc12 [Ex. 44, 7-Chloro-4-(piperidin-4-yl)-2H-isoquinolin-1-one hydrochloride]
26 | 7.17 |  | Cc1[nH]c(=O)c2ccccc2c1CN1CCCC1 [Ex. 25, 3-Methyl-4-(pyrrolidin-1-yl)methyl-2H-isoquinolin-1-one]
27 | 7.60 |  | CCN1CCC(c2nn(C)c3[nH]c(=O)c4ccccc4c23)CC1 [Ex. 210, 1-(1-Ethylpiperidin-4-yl)-3-methyl-pyrazolo[3,4-c]isoquinolin-5(4H)-one]

Row | SMILES | pIC50 (recombinant human PARP) | melting point [°C]
28 | O=C1NCCc2c(OCCCCN3CCCCC3)cccc21 [DPQ, 3,4-dihydro-5-[4-(1-piperidinyl)-butoxy]-1(2H)-isoquinolinone, reference compound] | 6.00 | 
